In publication PMC3006138, “Fexinidazole – A New Oral Nitroimidazole Drug Candidate Entering Clinical Development for the Treatment of Sleeping Sickness” (PLoS Neglected Tropical Diseases, 2010):
Where two headings read alike, the source gives them in different places.

Experiment: Rat 28-day toxicokinetics
Assay type: in vivo
Conditions: plasma, po; for AUC: read-out: AUC within 24 hours post dosing; for half-life: read-out: apparent terminal half-life (converted)
Procedure: In the rat repeated-dose toxicokinetic study, fexinidazole was administered orally by gavage once a day for 28 consecutive days to ten or fifteen Crl:CD (SD)IGS BR rats/sex/group at doses of 50, 200, or 800 mg/kg/day. A control group received the vehicle alone (5% Tween 80/0.5% methocel). Ten animals/sex/group were sacrificed at the end of the treatment period on day 29 or 30 of study. The remaining 5 animals/sex/group in the control and high-dose groups were sacrificed on day 43 at the end of a 2-weeks observation period. Systemic exposure to fexinidazole and its sulfoxide and sulfone metabolites was evaluated in three additional animals/sex/group. Samples were taken at predose, and 30 min, 1, 2, 4, 8 and 24 h after dosing on days 1, 14, and 28, and in addition at 48 and 72 h after treatment on day 28.
Toxicokinetic Report for the study No. 0504-2007
SD Standard deviation of the mean […]
t1/2,z Terminal half-life tmax Time to peak plasma concentration
ULOQ Upper limit of quantification
The study was conducted according to the study protocol and related amendment.
Fexinidazole was orally given by gavage once a day for 28 days to male and female Sprague Dawley rats according to the following scheme
Fexinidazole was suspended with 5% Tween 80 in 0.5% Methyl cellulose 400 cP.
6.2. Sample Collection and Handling
Blood samples (about 0.25 mL/sampling time) were withdrawn from retro-orbital sinus plexus under isofluorane anesthesia and put in heparinized plastic tubes kept on a ice-water bath, then centrifuged for 10 min at 1200g at +4°C and two aliquots of about 50 μL of plasma were stored in a freezer at -80°C until analysis. Blood was taken from three rats/gender/dose on Days 1 and 14 at pre-dose and 0.5, 1, 2, 4, 8 and 24 hours after dosing, on Day 28 at pre-dose and 1, 2, 4, 8, 24, 48 and 72 hours after dosing. After the administration of the vehicle, the samples were taken from three rats/gender at pre-dose and […]
6.3. Bioanalytical Method
Rat plasma concentrations of Fexinidazole and its sulfoxide (M1) and sulfone (M2) metabolites were determined by a validated LC/MS/MS method. The calibration range for the assay was 5-1000 ng/mL for Fexinidazole and 25-25000 ng/mL for M1 and M2.
Study samples containing analytes concentrations above the upper limit of quantitation were diluted with blank matrix prior to analysis.
6.4. Pharmacokinetic Calculations
Pharmacokinetic evaluation was carried out using non-compartmental approach with the aid […]
Excel spreadsheet (Microsoft Inc., Seattle, USA). […]
In the calculations, the undetectable concentrations between detectable ones were ignored.
After each dose level, Cmax and tmax of Fexinidazole and sulfoxide and sulfone metabolites […]
linear trapezoidal rule up to the last detectable concentration. On Day 28, since the blood […]
24 hours post dosing was calculated and denoted AUC0-24. This AUC was calculated in order to compare AUC values on Day 28 to those on Day 1 and Day 14. On Day 28, in addition, the half-life of the terminal phase, t1/2,z, was determined by linear regression analysis of the natural-log concentration vs. time curve, where t1/2,z = ln(2)/slope of the regression line.
Fexinidazole and metabolites accumulation ratios, based on Cmax (RA,Cmax), AUC0-24 (RA,AUC0-24) and AUC0-t(last) (RA,AUC0-t(last)), were calculated as the ratio between the parameters obtained on Day 14 and Day 28 to the corresponding one at Day 1. […]
pharmacokinetic parameters of each compound sorted by dose, gender and day of dosing. […]
compound are reported in Tables 1 and 2, whilst individual and mean parameters of each […]
Individual and mean (±SD, CV%) plasma
2A1 - 19A1 of Appendix 1. Individual plasma concentrations of Fexinidazole and both metabolites are plot in Figures 1 - 9, whilst the mean concentrations are plot in Figures 10 - 15. Mean normalized Cmax and AUC0-t(last) values of Fexinidazole and metabolites vs. dose are plot in Figures 16 - 21.
In-study bioanalytical validation data are reported in Appendix 2. All analytical batches met […]

[1] = Sprague Dawley (Crl:CD (SD)IGS BR), 50 mg/kg/day, Day 28, female
[2] = Sprague Dawley (Crl:CD (SD)IGS BR), 50 mg/kg/day, Day 28, male
[3] = Sprague Dawley (Crl:CD (SD)IGS BR), 200 mg/kg/day, Day 28, female
[4] = Sprague Dawley (Crl:CD (SD)IGS BR), 200 mg/kg/day, Day 28, male
[5] = Sprague Dawley (Crl:CD (SD)IGS BR), 800 mg/kg/day, Day 28, female (n=2)
[6] = Sprague Dawley (Crl:CD (SD)IGS BR), 800 mg/kg/day, Day 28, male
[7] = Sprague-Dawley (Crl:CD (SD)IGS BR), 50 mg/kg/day, 50 mg/kg/day po, day 1
[8] = Sprague-Dawley (Crl:CD (SD)IGS BR), 50 mg/kg/day, 50 mg/kg/day po, day 14
[9] = Sprague-Dawley (Crl:CD (SD)IGS BR), 200 mg/kg/day, 200 mg/kg/day po, day 1
[10] = both sexes, Sprague-Dawley (Crl:CD (SD)IGS BR), 200 mg/kg/day, 200 mg/kg/day po, day 14
[11] = both sexes, Sprague-Dawley (Crl:CD (SD)IGS BR), 800 mg/kg/day, 800 mg/kg/day po, day 1
[12] = both sexes, Sprague-Dawley (Crl:CD (SD)IGS BR), 800 mg/kg/day, 800 mg/kg/day po, day 14

## Cn1c([N+](=O)[O-])cnc1COc1ccc([S+](C)[O-])cc1 (stereo not drawn) [Fexinidazole sulfoxide]
[1]
  AUC: 53.8 ± 15.7 µg·h/mL
  half-life: 366 ± 228 min
[2]
  AUC: 29.5 ± 8.92 µg·h/mL
  half-life: 300 ± 120 min
[3]
  AUC: 138 ± 14.2 µg·h/mL
  half-life: 486 ± 186 min
[4]
  AUC: 122 ± 29.3 µg·h/mL
  half-life: 378 ± 174 min
[5]
  AUC: 292 ± 40.3 µg·h/mL
  half-life: 516 ± 138 min
[6]
  AUC: 130 ± 56.8 µg·h/mL
  half-life: 396 ± 246 min
[7]
  Cmax: 2700 ± 1400 ng/mL
  Tmax: 2.5 ± 1.22 h
Sprague-Dawley (Crl:CD (SD)IGS BR), 50 mg/kg/day, 50 mg/kg/day po, day 1, read-out: AUC0-t(last)
  AUC(0-t): 15.4 ± 9.28 µg·h/mL
[8]
  Cmax: 5230 ± 3280 ng/mL
  Tmax: 2.17 ± 0.98 h
Sprague-Dawley (Crl:CD (SD)IGS BR), 50 mg/kg/day, 50 mg/kg/day po, day 14, read-out: AUC0-t(last)
  AUC(0-t): 29.8 ± 19.4 µg·h/mL
[9]
  Cmax: 11400 ± 2170 ng/mL
  Tmax: 2.33 ± 0.82 h
Both sexes, Sprague-Dawley (Crl:CD (SD)IGS BR), 200 mg/kg/day, 200 mg/kg/day po, day 1, read-out: AUC0-t(last)
  AUC(0-t): 85.9 ± 14.1 µg·h/mL
[10]
  Cmax: 15800 ± 3170 ng/mL
  Tmax: 3.33 ± 1.03 h
Both sexes, Sprague-Dawley (Crl:CD (SD)IGS BR), 200 mg/kg/day, 200 mg/kg/day po, day 14, read-out: AUC0-t(last)
  AUC(0-t): 118 ± 38.9 µg·h/mL
[11]
  Cmax: 31700 ± 3740 ng/mL
  Tmax: 4.67 ± 1.63 h
Both sexes, Sprague-Dawley (Crl:CD (SD)IGS BR), 800 mg/kg/day, 800 mg/kg/day po, day 1, read-out: AUC0-t(last)
  AUC(0-t): 410 ± 101 µg·h/mL
[12]
  Cmax: 25000 ± 8990 ng/mL
  Tmax: 2.67 ± 1.03 h
Both sexes, Sprague-Dawley (Crl:CD (SD)IGS BR), 800 mg/kg/day, 800 mg/kg/day po, day 14, read-out: AUC0-t(last)
  AUC(0-t): 277 ± 160 µg·h/mL
female, Sprague Dawley (Crl:CD (SD)IGS BR), 50 mg/kg, Day 1, female
  Cmax: 3890 ± 663 ng/mL
female, Sprague Dawley (Crl:CD (SD)IGS BR), 50 mg/kg, Day 1, female, read-out: AUC0-t(last)
  AUC(0-t): 23.2 ± 5.33 µg·h/mL
female, Sprague Dawley (Crl:CD (SD)IGS BR), 50 mg/kg/day, Day 28, female
  Cmax: 11400 ± 6600 ng/mL
female, Sprague Dawley (Crl:CD (SD)IGS BR), 50 mg/kg/day, Day 28, female, read-out: AUC0-t(last)
  AUC(0-t): 78 ± 23.6 µg·h/mL
female, Sprague Dawley (Crl:CD (SD)IGS BR), 200 mg/kg, Day 1, female
  Cmax: 12800 ± 1130 ng/mL
female, Sprague Dawley (Crl:CD (SD)IGS BR), 200 mg/kg, Day 1, female, read-out: AUC0-t(last)
  AUC(0-t): 91.4 ± 19.7 µg·h/mL
female, Sprague Dawley (Crl:CD (SD)IGS BR), 200 mg/kg/day, Day 28, female
  Cmax: 22300 ± 1470 ng/mL
female, Sprague Dawley (Crl:CD (SD)IGS BR), 200 mg/kg/day, Day 28, female, read-out: AUC0-t(last)
  AUC(0-t): 153 ± 36.9 µg·h/mL
female, Sprague Dawley (Crl:CD (SD)IGS BR), 800 mg/kg, Day 1, female
  Cmax: 30600 ± 2620 ng/mL
female, Sprague Dawley (Crl:CD (SD)IGS BR), 800 mg/kg, Day 1, female, read-out: AUC0-t(last)
  AUC(0-t): 453 ± 84.7 µg·h/mL
female, Sprague Dawley (Crl:CD (SD)IGS BR), 800 mg/kg/day, Day 28, female (n=2)
  Cmax: 25800 ± 2050 ng/mL
female, Sprague Dawley (Crl:CD (SD)IGS BR), 800 mg/kg/day, Day 28, female (n=2), read-out: AUC0-t(last)
  AUC(0-t): 331 ± 57.3 µg·h/mL
male, Sprague Dawley (Crl:CD (SD)IGS BR), 50 mg/kg, Day 1, male
  Cmax: 1500 ± 413 ng/mL
male, Sprague Dawley (Crl:CD (SD)IGS BR), 50 mg/kg, Day 1, male, read-out: AUC0-t(last)
  AUC(0-t): 7.66 ± 2.38 µg·h/mL
male, Sprague Dawley (Crl:CD (SD)IGS BR), 50 mg/kg/day, Day 28, male
  Cmax: 4530 ± 664 ng/mL
male, Sprague Dawley (Crl:CD (SD)IGS BR), 50 mg/kg/day, Day 28, male, read-out: AUC0-t(last)
  AUC(0-t): 30.6 ± 10.9 µg·h/mL
male, Sprague Dawley (Crl:CD (SD)IGS BR), 200 mg/kg, Day 1, male
  Cmax: 9990 ± 2130 ng/mL
male, Sprague Dawley (Crl:CD (SD)IGS BR), 200 mg/kg, Day 1, male, read-out: AUC0-t(last)
  AUC(0-t): 80.5 ± 4.31 µg·h/mL
male, Sprague Dawley (Crl:CD (SD)IGS BR), 200 mg/kg/day, Day 28, male
  Cmax: 11600 ± 2400 ng/mL
male, Sprague Dawley (Crl:CD (SD)IGS BR), 200 mg/kg/day, Day 28, male, read-out: AUC0-t(last)
  AUC(0-t): 138 ± 45 µg·h/mL
male, Sprague Dawley (Crl:CD (SD)IGS BR), 800 mg/kg, Day 1, male
  Cmax: 32800 ± 4950 ng/mL
male, Sprague Dawley (Crl:CD (SD)IGS BR), 800 mg/kg, Day 1, male, read-out: AUC0-t(last)
  AUC(0-t): 366 ± 113 µg·h/mL
male, Sprague Dawley (Crl:CD (SD)IGS BR), 800 mg/kg/day, Day 28, male
  Cmax: 16600 ± 2080 ng/mL
male, Sprague Dawley (Crl:CD (SD)IGS BR), 800 mg/kg/day, Day 28, male, read-out: AUC0-t(last)
  AUC(0-t): 268 ± 64.1 µg·h/mL
